Experimental data from PubChem BioAssay (NCI).
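Five concentrations, 48 hours, 96-well plates. The concentration for full growth arrest is given as TGI.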

Columns and labels:
Assay in all cases: growth of human tumour cells (NCI), 48 h
MDA-MB-435 = test system: MDA-MB-435
M14 melanoma = test system: M14 melanoma
IGROV1 ovarian = test system: IGROV1 ovarian
MDA-N = test system: MDA-N
U251 CNS = test system: U251 CNS
SF-295 CNS = test system: SF-295 CNS
SK-MEL-28 melanoma = test system: SK-MEL-28 melanoma
DLD-1 colon = test system: DLD-1 colon
SF-539 CNS = test system: SF-539 CNS
NCI-H522 lung = test system: NCI-H522 lung
BT-549 breast = test system: BT-549 breast
OVCAR-3 ovarian = test system: OVCAR-3 ovarian
DMS 273 small cell lung = test system: DMS 273 small cell lung
M19-MEL melanoma = test system: M19-MEL melanoma
LXFL 529 NSCLC = test system: LXFL 529 NSCLC
SW-620 colon = test system: SW-620 colon
A498 renal = test system: A498 renal
HOP-92 NSCLC = test system: HOP-92 NSCLC
CAKI-1 renal = test system: CAKI-1 renal
DU-145 prostate = test system: DU-145 prostate
RXF 393 renal = test system: RXF 393 renal
XF 498 CNS = test system: XF 498 CNS
SNB-19 CNS = test system: SNB-19 CNS
DMS 114 small cell lung = test system: DMS 114 small cell lung
T-47D breast = test system: T-47D breast
MALME-3M melanoma = test system: MALME-3M melanoma
TK-10 renal = test system: TK-10 renal
HCT-15 colon = test system: HCT-15 colon
MCF7 breast = test system: MCF7 breast
LOX IMVI melanoma = test system: LOX IMVI melanoma
NCI-H23 lung = test system: NCI-H23 lung
SK-OV-3 ovarian = test system: SK-OV-3 ovarian
ACHN renal = test system: ACHN renal
UACC-62 melanoma = test system: UACC-62 melanoma
UACC-257 melanoma = test system: UACC-257 melanoma
UO-31 renal = test system: UO-31 renal
HCT-116 colon = test system: HCT-116 colon
MDA-MB-231 breast = test system: MDA-MB-231 breast
SK-MEL-5 melanoma = test system: SK-MEL-5 melanoma
RPMI-8226 leukemia = test system: RPMI-8226 leukemia
OVCAR-8 ovarian = test system: OVCAR-8 ovarian
NCI-H460 lung = test system: NCI-H460 lung
SF-268 CNS = test system: SF-268 CNS
HL-60(TB) leukemia = test system: HL-60(TB) leukemia
HS 578T breast = test system: HS 578T breast
A549 NSCLC = test system: A549 NSCLC
MOLT-4 leukemia = test system: MOLT-4 leukemia
SN12C renal = test system: SN12C renal
NCI-H226 lung = test system: NCI-H226 lung
SR leukemia = test system: SR leukemia
EKVX NSCLC = test system: EKVX NSCLC
K-562 leukemia = test system: K-562 leukemia
NCI/ADR-RES ovarian = test system: NCI/ADR-RES ovarian
PC-3 prostate = test system: PC-3 prostate
SNB-78 CNS = test system: SNB-78 CNS
SNB-75 CNS = test system: SNB-75 CNS
CCRF-CEM leukemia = test system: CCRF-CEM leukemia
OVCAR-5 ovarian = test system: OVCAR-5 ovarian
786-0 renal = test system: 786-0 renal
COLO 205 colon = test system: COLO 205 colon
HT29 colon = test system: HT29 colon
HCC-2998 colon = test system: HCC-2998 colon
HOP-62 NSCLC = test system: HOP-62 NSCLC
KM12 colon = test system: KM12 colon
KM20L2 colon = test system: KM20L2 colon
OVCAR-4 ovarian = test system: OVCAR-4 ovarian
SK-MEL-2 melanoma = test system: SK-MEL-2 melanoma

Compound: C[C@]12C=CC(=O)C=C1[C@@H](F)C[C@H]1[C@@H]3CC[C@](O)(C(=O)CO)[C@@]3(C)C[C@H](O)[C@@]12F
- TGI (MDA-MB-435): > 100 µM
- TGI (M14 melanoma): > 100 µM
- TGI (IGROV1 ovarian): > 100 µM
- TGI (MDA-N): > 100 µM
- TGI (U251 CNS): > 100 µM
- TGI (SF-295 CNS): > 100 µM
- TGI (SK-MEL-28 melanoma): > 100 µM
- TGI (DLD-1 colon): > 100 µM
- TGI (SF-539 CNS): > 100 µM
- TGI (NCI-H522 lung): > 100 µM
- TGI (BT-549 breast): > 100 µM
- TGI (OVCAR-3 ovarian): > 100 µM
- TGI (DMS 273 small cell lung): > 100 µM
- TGI (M19-MEL melanoma): > 100 µM
- TGI (LXFL 529 NSCLC): > 100 µM
- TGI (SW-620 colon): > 100 µM
- TGI (A498 renal): > 100 µM
- TGI (HOP-92 NSCLC): > 100 µM
- TGI (CAKI-1 renal): > 100 µM
- TGI (DU-145 prostate): > 100 µM
- TGI (RXF 393 renal): > 100 µM
- TGI (XF 498 CNS): > 100 µM
- TGI (SNB-19 CNS): > 100 µM
- TGI (DMS 114 small cell lung): > 100 µM
- TGI (T-47D breast): > 100 µM
- TGI (MALME-3M melanoma): > 100 µM
- TGI (TK-10 renal): > 100 µM
- TGI (HCT-15 colon): > 100 µM
- TGI (MCF7 breast): > 100 µM
- TGI (LOX IMVI melanoma): > 100 µM
- TGI (NCI-H23 lung): > 100 µM
- TGI (SK-OV-3 ovarian): > 100 µM
- TGI (ACHN renal): > 100 µM
- TGI (UACC-62 melanoma): > 100 µM
- TGI (UACC-257 melanoma): > 100 µM
- TGI (UO-31 renal): > 100 µM
- TGI (HCT-116 colon): > 100 µM
- TGI (MDA-MB-231 breast): > 100 µM
- TGI (SK-MEL-5 melanoma): > 100 µM
- TGI (RPMI-8226 leukemia): > 100 µM
- TGI (OVCAR-8 ovarian): > 100 µM
- TGI (NCI-H460 lung): > 100 µM
- TGI (SF-268 CNS): > 100 µM
- TGI (HL-60(TB) leukemia): > 100 µM
- TGI (HS 578T breast): > 100 µM
- TGI (A549 NSCLC): > 100 µM
- TGI (MOLT-4 leukemia): > 100 µM
- TGI (SN12C renal): > 100 µM
- TGI (NCI-H226 lung): > 100 µM
- TGI (SR leukemia): > 100 µM
- TGI (EKVX NSCLC): > 100 µM
- TGI (K-562 leukemia): > 100 µM
- TGI (NCI/ADR-RES ovarian): > 100 µM
- TGI (PC-3 prostate): > 100 µM
- TGI (SNB-78 CNS): > 100 µM
- TGI (SNB-75 CNS): > 100 µM
- TGI (CCRF-CEM leukemia): > 100 µM
- TGI (OVCAR-5 ovarian): > 100 µM
- TGI (786-0 renal): > 100 µM
- TGI (COLO 205 colon): > 100 µM
- TGI (HT29 colon): > 100 µM
- TGI (HCC-2998 colon): > 100 µM
- TGI (HOP-62 NSCLC): > 100 µM
- TGI (KM12 colon): > 100 µM
- TGI (KM20L2 colon): > 100 µM
- TGI (OVCAR-4 ovarian): > 100 µM
- TGI (SK-MEL-2 melanoma): > 100 µM

Compound: COc1ccc2nccc(NCCCN3CCN(CCCNc4ccnc5ccc(OC)cc45)CC3)c2c1
- TGI (MDA-MB-435): 1.65 µM
- TGI (M14 melanoma): 3.19 µM
- TGI (IGROV1 ovarian): 3.69 µM
- TGI (MDA-N): 1.52 µM
- TGI (U251 CNS): 1.51 µM
- TGI (SF-295 CNS): 5.16 µM
- TGI (SK-MEL-28 melanoma): 2.92 µM
- TGI (DLD-1 colon): 5.12 µM
- TGI (SF-539 CNS): 0.681 µM
- TGI (NCI-H522 lung): 0.633 µM
- TGI (BT-549 breast): 11.6 µM
- TGI (OVCAR-3 ovarian): 7.73 µM
- TGI (DMS 273 small cell lung): 1.67 µM
- TGI (M19-MEL melanoma): 1.97 µM
- TGI (LXFL 529 NSCLC): 1.82 µM
- TGI (SW-620 colon): 1.04 µM
- TGI (A498 renal): 13.5 µM
- TGI (HOP-92 NSCLC): 2.35 µM
- TGI (CAKI-1 renal): 15 µM
- TGI (DU-145 prostate): 4.86 µM
- TGI (RXF 393 renal): 3.69 µM
- TGI (XF 498 CNS): 1.56 µM
- TGI (SNB-19 CNS): 5.98 µM
- TGI (DMS 114 small cell lung): 1.91 µM
- TGI (T-47D breast): 4.65 µM
- TGI (MALME-3M melanoma): 1.88 µM
- TGI (TK-10 renal): 22 µM
- TGI (HCT-15 colon): 32.4 µM
- TGI (MCF7 breast): 1.37 µM
- TGI (LOX IMVI melanoma): 1.49 µM
- TGI (NCI-H23 lung): 2.12 µM
- TGI (SK-OV-3 ovarian): 6.82 µM
- TGI (ACHN renal): 11.4 µM
- TGI (UACC-62 melanoma): 2.08 µM
- TGI (UACC-257 melanoma): 2.62 µM
- TGI (UO-31 renal): 25.8 µM
- TGI (HCT-116 colon): 2.54 µM
- TGI (MDA-MB-231 breast): 4 µM
- TGI (SK-MEL-5 melanoma): 2.85 µM
- TGI (RPMI-8226 leukemia): 1.46 µM
- TGI (OVCAR-8 ovarian): 2.85 µM
- TGI (NCI-H460 lung): 1.77 µM
- TGI (SF-268 CNS): 1.79 µM
- TGI (HS 578T breast): 3.27 µM
- TGI (A549 NSCLC): 6.55 µM
- TGI (MOLT-4 leukemia): 1.16 µM
- TGI (SN12C renal): 1.45 µM
- TGI (NCI-H226 lung): 1.37 µM
- TGI (SR leukemia): > 26.2 µM
- TGI (EKVX NSCLC): 7.93 µM
- TGI (K-562 leukemia): 0.526 µM
- TGI (NCI/ADR-RES ovarian): > 100 µM
- TGI (PC-3 prostate): 4.15 µM
- TGI (SNB-78 CNS): 3.47 µM
- TGI (SNB-75 CNS): 1.89 µM
- TGI (CCRF-CEM leukemia): > 100 µM
- TGI (OVCAR-5 ovarian): 4.74 µM
- TGI (786-0 renal): 8.99 µM
- TGI (COLO 205 colon): 1.24 µM
- TGI (HT29 colon): 1.67 µM
- TGI (HCC-2998 colon): 2.13 µM
- TGI (HOP-62 NSCLC): 4.4 µM
- TGI (KM12 colon): 1.79 µM
- TGI (KM20L2 colon): 3.37 µM
- TGI (OVCAR-4 ovarian): 2.55 µM
- TGI (SK-MEL-2 melanoma): 7.99 µM
